Experimental data from patent US20130266676A1, “TERMINALIA CHEBULA COMPOSITIONS AND METHOD OF EXTRACTING SAME” (NATREON, INC., priority 2012, published 2013).

Assays:
HSV-1 = conditions: noncytotoxic doses, A549 human lung cells; cited from earlier work
HIV rgp120 to CD4 = HIV rgp120 to CD4 (UniProt P01730+P04578); conditions: cited from earlier work
[1] = tested on: stimulated human peripheral blood lymphocytes; conditions: concentrations ten times above maximal effective concentration; cited from earlier work
[2] = tested on: HCT-15, COLO-205, MDA-MB-231, DU-145 and K562 cell lines; conditions: cited from earlier work
melanin = conditions: compared with ascorbic acid, butylated hydroxyl toluene, alpha-tocopherol, arbutin and kojic acid; cited from earlier work
[3] = compared with ascorbic acid, butylated hydroxyl toluene, alpha-tocopherol, arbutin and kojic acid; cited from earlier work
[4] = tested on: collagen-induced arthritis; conditions: mice; cited from earlier work
PRMI-7951 melanoma cells = conditions: cited from earlier work
HepG2 cells = conditions: cited from earlier work
COX-2 = molecular target: T1, COX-2 (Homo sapiens, UniProt P35354); conditions: cited from earlier work
T1 sequence (P35354 18-604): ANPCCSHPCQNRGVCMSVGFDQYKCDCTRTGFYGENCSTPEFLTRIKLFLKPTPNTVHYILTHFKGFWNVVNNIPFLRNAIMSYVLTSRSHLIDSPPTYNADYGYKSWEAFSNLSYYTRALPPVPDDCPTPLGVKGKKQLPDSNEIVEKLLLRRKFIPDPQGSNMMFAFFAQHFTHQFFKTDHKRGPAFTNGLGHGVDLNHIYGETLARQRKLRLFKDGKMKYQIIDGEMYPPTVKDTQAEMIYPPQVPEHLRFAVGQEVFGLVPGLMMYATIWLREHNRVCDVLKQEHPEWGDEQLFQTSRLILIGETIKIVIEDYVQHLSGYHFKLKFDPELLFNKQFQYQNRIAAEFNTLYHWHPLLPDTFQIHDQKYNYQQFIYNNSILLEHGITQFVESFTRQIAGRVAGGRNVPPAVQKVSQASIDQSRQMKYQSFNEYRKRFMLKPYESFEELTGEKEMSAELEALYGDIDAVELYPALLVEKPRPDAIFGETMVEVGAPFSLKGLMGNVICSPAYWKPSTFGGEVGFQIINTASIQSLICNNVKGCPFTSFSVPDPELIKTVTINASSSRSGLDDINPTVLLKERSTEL

Smad pathway = conditions: through inhibition of the Smad pathway; cited from earlier work
LPS-stimulated RAW 264.7 = conditions: cited from earlier work
5-LOX = conditions: cited from earlier work
[5] = Thermal stability during aqueous extraction at 80±5° C. (HPLC); type: physicochemical; conditions: different time points
Procedure: In another experiment, fruit pericarp portions of T. Chebula (50 g) were pulverized and the resulting powder was extracted with distilled water (300 ml) for 12 hours, with a continuous stirring (400 RPM), separately at different temperatures 30±5° C., 40±5° C., 60±5° C. and 80±5° C. using a pressure reactor. Aliquots of the samples were withdrawn at different time intervals during extraction, spray dried and analyzed for bioactives (Chebulagic acid, Chebulinic acid and other LMwHTs) by HPLC (as discussed above). The results are incorporated in Tables 3-6. As used herein, “0 hour” extraction refers to “instant extraction,” which for the purpose of this disclosure means distilled water was added to the pulverized powder on a thermostatic water bath, stirred for 5 minutes and an aliquot of the sample withdrawn and analyzed.

COX-1 = conditions: cited from earlier work
[6] = tested on: MCF-7, S115, HOS-1, PC-3 and PNT1A cell lines; conditions: cited from earlier work
K562 cells = conditions: concentration-dependent; cited from earlier work
[7] = tested on: human cervical carcinoma HeLa cells; conditions: cited from earlier work
[8] = rats; cited from earlier work
[9] = tested on: cytotoxic T-lymphocyte (CTL)-mediated cytotoxicity; conditions: cited from earlier work

Structure (SMILES): O=C1O[C@H]2[C@@H]3OC(=O)c4cc(O)c(O)c(O)c4-c4c(O)c(O)c5oc(=O)c6c(c(O)c(O)c7oc(=O)c4c5c76)-c4c(cc(O)c(O)c4O)C(=O)OC[C@H]3OC(O)[C@@H]2OC(=O)c2cc(O)c(O)c(O)c2-c2c1cc(O)c(O)c2O (mixture of isomers) [punicalagin]
- inhibition of HSV-1 entry (HSV-1): inhibit HSV-1 entry

Structure (SMILES): O=C1OC[C@H]2OC(O)[C@H](O)[C@@H](O)[C@@H]2OC(=O)c2cc(O)c(O)c(O)c2-c2c(O)c(O)c3oc(=O)c4c(c(O)c(O)c5oc(=O)c2c3c54)-c2c1cc(O)c(O)c2O (mixture of isomers) [punicalin]
- blocking of binding of HIV rgp120 to CD4 (HIV rgp120 to CD4): block the binding
- toxicity to lymphocytes [1]: not toxic

Structure (SMILES): O=C(O)CC1C(=O)OC2C3COC(=O)c4cc(O)c(O)c(O)c4-c4c(cc(O)c(O)c4O)C(=O)OC2C(OC(=O)c2cc(O)c(O)c4c2C1C(O)C(=O)O4)C(OC(=O)c1cc(O)c(O)c(O)c1)O3 [Chebulagic acid, beta-1-O-galloyl-2,4-chebuloyl-3,6-(R)-hexahydroxydiphenoyl-D-glucose]
- anti-proliferative activity [2]: anti-proliferative activity
- melanin inhibitory activity versus reference agents (melanin): stronger
- DPPH radical scavenging activity versus reference antioxidants [3]: stronger
- onset and progression of collagen-induced arthritis [4]: suppress the onset and progression
- inhibition of HSV-1 entry (HSV-1): inhibit HSV-1 entry
- cytotoxicity (PRMI-7951 melanoma cells): cytotoxic properties
- enhancement of cytotoxicity of doxorubicin (HepG2 cells; HepG2 cells): 20 fold
- interaction with doxorubicin by Combination Index (CI), cell growth inhibition (HepG2 cells): strong synergistic interaction
- IC50 (COX-2): 920 ± 11 nM
- antifibrotic activity (Smad pathway): antifibrotic activity
- anti-inflammatory effects (LPS-stimulated RAW 264.7): potent anti-inflammatory effects
- IC50 (5-LOX): 2100 ± 57 nM
- thermal stability [5]: thermolabile
- IC50 (COX-1): 15000 ± 288 nM

Structure (SMILES): O=C(O)CC1C(=O)OC2C(COC(=O)c3cc(O)c(O)c(O)c3)OC(OC(=O)c3cc(O)c(O)c(O)c3)C(OC(=O)c3cc(O)c(O)c4c3C1C(O)C(=O)O4)C2OC(=O)c1cc(O)c(O)c(O)c1 [Chebulinic acid, 1,3,6-tri-O-galloyl-2,4-chebuloyl-beta-D-glucose]
- melanin inhibitory activity versus reference agents (melanin): stronger
- DPPH radical scavenging activity versus reference antioxidants [3]: stronger
- blocking of binding of HIV rgp120 to CD4 (HIV rgp120 to CD4): block the binding
- toxicity to lymphocytes [1]: not toxic
- growth inhibition [6]: growth inhibitory
- hemoglobin synthesis (K562 cells): inhibited the hemoglobin synthesis
- anti-tumor properties [7]: anti-tumor properties
- blood pressure effect [8]: blood pressure lowering effect
- antifibrotic activity (Smad pathway): antifibrotic activity
- thermal stability [5]: thermolabile

Structure (SMILES): O=C(O[C@H]1[C@@H]2OC(=O)c3cc(O)c(O)c(O)c3-c3c(cc(O)c(O)c3O)C(=O)OC[C@H]2OC(O)[C@@H]1OC(=O)c1cc(O)c(O)c(O)c1)c1cc(O)c(O)c(O)c1 (stereo partly shown) [Tellimagrandin I]
- anti-tumor properties [7]: anti-tumor properties

Structure (SMILES): O=C(O)C[C@H](C(=O)O)[C@H]1c2c(cc(O)c(O)c2O)C(=O)O[C@@H]1C(=O)O [chebulic acid]
- blocking of CTL-mediated cytotoxicity [9]: blocked

Structure (SMILES): O=c1oc2c(O)c(O)cc3c(=O)oc4c(O)c(O)cc1c4c23 [ellagic acid]
- growth inhibition [6]: growth inhibitory

Structure (SMILES): O=C(OC[C@H]1O[C@@H](OC(=O)c2cc(O)c(O)c(OC(=O)c3cc(O)c(O)c(O)c3)c2)[C@H](OC(=O)c2cc(O)c(O)c(OC(=O)c3cc(O)c(O)c(O)c3)c2)[C@@H](OC(=O)c2cc(O)c(O)c(OC(=O)c3cc(O)c(O)c(O)c3)c2)[C@@H]1OC(=O)c1cc(O)c(O)c(OC(=O)c2cc(O)c(O)c(O)c2)c1)c1cc(O)c(O)c(OC(=O)c2cc(O)c(O)c(O)c2)c1 [tannic acid]
- growth inhibition [6]: growth inhibitory
